Experimental data reported in US8063191B2, “Polynucleotides encoding for fusion proteins with natriuresis activity” (Mayo Foundation for Medical Education and Research, priority 2005, dated 2011).

System: normal dogs that were anesthetized
Assay: Hemodynamic and renal properties of intravenous LA-ANP versus ANP infusion in anesthetized normal dogs
Assay type: in vivo, dog
Conditions: for urinary sodium excretion: baseline 47.0±18.9; for distal fractional sodium reabsorption: baseline 97.2±0.9
Protocol: Studies comparing LA-ANP to ANP were performed in normal dogs that were anesthetized. Equimolar concentrations of a low dose (2 pmol/kg/min) of LA-ANP and ANP were infused intravenously, where ANP was administered at a threshold concentration required to activate cyclic guanosine monophosphate. Equimolar concentrations of a high dose of LA-ANP and ANP (33 pmol/kg/min.) were also infused intravenously. Infusion of ANP or LA-ANP for 45 minutes was performed following a 30 minute baseline period, which was preceded by a 60 minute equilibrium period. Infusion was followed by a 30 minute wash-out period and three recovery (Rec) periods of 30 minutes each. Hemodynamic and renal parameters were measured at baseline (BL), during 45 minutes of infusion, and 120 minutes post-infusion.

[1] = low dose 2 pmol/kg/min i.v., at 120 minutes post-infusion
[2] = low dose 2 pmol/kg/min i.v., during infusion

Row | Compound | diuretic effect as compared to ANP (equimolar i.v. infusion) | natriuretic effect as compared to ANP (equimolar i.v. infusion) | glomerular filtration rate, compared to high dose of ANP (high dose 33 pmol/kg/min i.v.) | mean arterial pressure, compared to high dose of ANP (high dose 33 pmol/kg/min i.v.) | urinary sodium excretion (low dose 2 pmol/kg/min i.v., at 120 minutes post-infusion, p<0.01) [μEq/min.] | distal fractional sodium reabsorption [1] [%] | urinary sodium excretion (low dose 2 pmol/kg/min i.v., during 45 min infusion, p<0.01) [μEq/min.] | glomerular filtration rate (in words) [2] | mean arterial pressure (in words) [2] | renal blood flow, compared to low dose ANP [2] | diuresis (urine flow) (low dose 2 pmol/kg/min i.v., during infusion, baseline 0.34±0.08, p<0.01) [mL/min] | distal fractional sodium reabsorption [2] [%] | distal fractional sodium reabsorption, overall, compared to low dose of ANP (low dose 2 pmol/kg/min i.v., p<0.01) | natriuresis (in words) [1] | natriuresis (in words) [2] | diuresis (in words) (low dose 2 pmol/kg/min i.v., with infusion)
1 | SLRRSSCFGGRMDRIGAQSGLGCNSFRYRITA-REDKQGWA (SLRRSSCFGGRMDRIGAQSGLGCNSFRYRITAREDKQGWA; listed as Homo sapiens) [LA-ANP] | greater diuretic effect | greater natriuretic effect | increased | decreased | 119.2±34.2 | 95.3±0.9 | 88.4±17.5 | No change | No change | increased | 1.08 ± 0.23 | 96.0±0.6 | significantly decreased | – | – | –
2 | CC[C@H](C)[C@@H]1NC(=O)[C@H](CCCNC(=N)N)NC(=O)[C@H](CC(=O)O)NC(=O)[C@H](CCSC)NC(=O)[C@H](CCCNC(=N)N)NC(=O)CNC(=O)CNC(=O)[C@H](Cc2ccccc2)NC(=O)[C@@H](NC(=O)[C@H](CO)NC(=O)[C@H](CO)NC(=O)[C@H](CCCNC(=N)N)NC(=O)[C@H](CCCNC(=N)N)NC(=O)[C@H](CC(C)C)NC(=O)[C@@H](N)CO)CSSC[C@@H](C(=O)N[C@@H](CC(N)=O)C(=O)N[C@@H](CO)C(=O)N[C@@H](Cc2ccccc2)C(=O)N[C@@H](CCCNC(=N)N)C(=O)N[C@@H](Cc2ccc(O)cc2)C(=O)O)NC(=O)CNC(=O)[C@H](CC(C)C)NC(=O)CNC(=O)[C@H](CO)NC(=O)[C@H](CCC(N)=O)NC(=O)[C@H](C)NC(=O)CNC1=O [ANP, reference compound] | – | – | – | – | – | – | – | No change | No change | – | – | – | – | not increased | not increased | no significant change
